From patent publication US5686486A, “4-hydroxy-benzopyran-2-ones and 4-hydroxy-cycloalkyl[b]pyran-2-ones useful to treat retroviral infections” (priority 1995, dated 1997) come the findings set out here.

Experiment [1] deals with T1, HIV-1 protease (Human immunodeficiency virus type 1 group M subtype B, UniProt P04585). The experiment can be described thus: biochemical. The conditions noted are these: read-out: HIV-1 FITC KI. The method in brief:
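Ki from two-fold serial inhibitor dilutions (24–48 concentrations) with 40 nM HIV-1 protease stock and 200 μM substrate stock, 90 min at room temperature; stopped with avidin beads. Reference inhibitor run in parallel; Ki by nonlinear least-squares fit.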

Experiment [2] concerns the target T1, HIV-1 protease. In words: biochemical. The note with it: for inhibition at 0.123 µM: read-out: HIV-1 Protease % Inhib, dose 0.123 uM; for inhibition at 0.37 µM: read-out: HIV-1 Protease % Inhib, dose 0.370 uM; for inhibition at 1.1 µM: read-out: HIV-1 Protease % Inhib, dose 1.100 uM; for inhibition at 3.3 µM: read-out: HIV-1 Protease % Inhib, dose 3.300 uM; for inhibition at 10 µM: read-out: HIV-1 Protease % Inhib, dose 10.000 uM; for inhibition at 30 µM: read-out: HIV-1 Protease % Inhib, dose 30.000 uM. A digest of the protocol:
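Biotinylated, FITC-labeled peptide substrate (20 μl of 0.2 μM) incubated with HIV-1 protease (10 μl of 0.1 μM) and compound in 0.1 M sodium acetate pH 5.5, 1.0 M NaCl, 0.05% NP-40, 1 h, room temperature, dark. Streptavidin beads then capture uncleaved substrate; filtered labeled product read by fluorescence, giving percent inhibition.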

By Ki is commonly meant a measure of affinity in units of concentration, obtained from inhibition or displacement. Turning to `O=c1oc2c(c(O)c1C(c1cccc(NS(=O)(=O)c3ccc(O)cc3)c1)C1CC1)CCCCCC2` (stereo not drawn) [Example 407, N-[3-[Cyclopropyl(5,6,7,8,9,10-hexahydro-4-hydroxy-2-oxo-2H-cycloocta[b]pyran-3-yl)methyl]phenyl]-4-hydroxy-benzenesulfonamide], the Ki on HIV-1 protease [1] came out at 6.6 nM. Moreover, at HIV-1 protease [2], the inhibition at 0.123 µM was 26.8%, the inhibition at 0.37 µM came to 74.7%, the inhibition at 1.1 µM amounted to 91.2% and the inhibition at 3.3 µM stood at 98.1%. On HIV-1 protease [2], the inhibition at 10 µM worked out at 107% and the inhibition at 30 µM came to 113%.

With `O=C(COCc1ccccc1)Nc1cccc(S(=O)(=O)Nc2cccc(C(c3c(O)c4c(oc3=O)CCCCCC4)C3CC3)c2)c1` (stereo not drawn) [Example 408, 3-(Benzyloxyacetylamino)-N-[3-[cyclopropyl(5,6,7,8,9,10-hexahydro-4-hydroxy-2-oxo-2H-cycloocta[b]pyran-3-yl)methyl]phenyl]-benzenesulfonamide], on HIV-1 protease [1], the Ki was 14 nM. On HIV-1 protease [2], the inhibition at 0.123 µM was 38.4%, the inhibition at 0.37 µM was 70.1%, the inhibition at 1.1 µM was determined as 88.9% and the inhibition at 3.3 µM came out at 98.5%. Moreover, at HIV-1 protease [2], the inhibition at 10 µM is 91.7% and the inhibition at 30 µM amounted to 107%.

In the case of `O=C(CO)Nc1cccc(S(=O)(=O)Nc2cccc(C(c3c(O)c4c(oc3=O)CCCCCC4)C3CC3)c2)c1` (stereo not drawn) [Example 409, 3-(Hydroxyacetylamino)-N-[3-[cyclopropyl(5,6,7,8,9,10-hexahydro4-hydroxy-2-oxo-2H-cycloocta[b]pyran-3-yl)methyl]phenyl]-benzenesulfonamide], on HIV-1 protease [1], the inhibitory constant (Ki) turned out to be 3.3 nM. At HIV-1 protease [2], the inhibition at 0.123 µM came to 65.1%, the inhibition at 0.37 µM is 90.5%, the inhibition at 1.1 µM was 102% and the inhibition at 3.3 µM was 103%. In addition, at HIV-1 protease [2], the inhibition at 10 µM came to 101% and the inhibition at 30 µM is 108%.

With `O=c1oc2c(c(O)c1C(c1cccc(NS(=O)(=O)c3cccc(S(=O)(=O)N4CCOCC4)c3)c1)C1CC1)CCCCCC2` (stereo not drawn) [Example 411, N-[3-[Cyclopropyl(5,6,7,8,9,10-hexahydro-4-hydroxy-2-oxo-2H-cycloocta[b]pyran-3-yl)-methyl]phenyl]-(3-N-morpholinebenzenesulfonyl)benzenesulfonamide], on HIV-1 protease [1], the inhibition constant Ki was determined as 2.5 nM. Besides, at HIV-1 protease [2], the inhibition at 0.123 µM was 71.1%, the inhibition at 0.37 µM stood at 79.4%, the inhibition at 1.1 µM came out at 98.5% and the inhibition at 3.3 µM was 104%. Besides, at HIV-1 protease [2], the inhibition at 10 µM worked out at 107% and the inhibition at 30 µM was 106%.

Consider `O=c1oc2c(c(O)c1C(c1cccc(NS(=O)(=O)c3cccc(S(=O)(=O)NCc4ccccc4)c3)c1)C1CC1)CCCCCC2` (stereo not drawn) [Example 412, N-[3-[Cyclopropyl(5,6,7,8,9,10-hexahydro-4-hydroxy-2-oxo-2H-cycloocta[b]pyran-3-yl)-methyl]phenyl]-(3-N-benzylbenzenesulfonyl)benzenesulfonamide], for which the Ki at HIV-1 protease [1] was 9.2 nM. Besides, on HIV-1 protease [2], the inhibition at 0.123 µM was determined as 37.8%, the inhibition at 0.37 µM stood at 69.2%, the inhibition at 1.1 µM turned out to be 92% and the inhibition at 3.3 µM is 102%. Besides, at HIV-1 protease [2], the inhibition at 10 µM came out at 99% and the inhibition at 30 µM stood at 102%.

In the case of `O=c1oc2c(c(O)c1C(c1cccc(NS(=O)(=O)c3cccc(S(=O)(=O)N(Cc4ccccc4)Cc4ccccc4)c3)c1)C1CC1)CCCCCC2` (stereo not drawn) [Example 413, N-[3-[Cyclopropyl(5,6,7,8,9,10-hexahydro-4-hydroxy-2-oxo-2H-cycloocta[b]pyran-3-yl)-methyl]phenyl]-(3-N,N-dibenzylbenzenesulfonyl)benzenesulfonamide], the Ki on HIV-1 protease [1] was 104 nM. At HIV-1 protease [2], the inhibition at 0.37 µM turned out to be 17.4%, the inhibition at 1.1 µM was determined as 43.1%, the inhibition at 3.3 µM is 77.7% and the inhibition at 10 µM turned out to be 95.2%. In addition, at HIV-1 protease [2], the inhibition at 30 µM amounted to 92.7%.

Turning to `COCCOCCOCCOc1ccc(S(=O)(=O)Nc2cccc(C(c3c(O)c4c(oc3=O)CCCCCC4)C3CC3)c2)cc1` (stereo not drawn) [Example 415, Benzenesulfonamide, N-[3-[cyclopropyl(5,6,7,8,9,10-hexahydro-4-hydroxy-2-oxo-2H-cycloocta[b]pyran-3-yl)methyl]phenyl]-4-[2-[2-(2-methoxyethoxy)ethoxy]ethoxy]-], the Ki at HIV-1 protease [1] turned out to be 2.3 nM. Besides, at HIV-1 protease [2], the inhibition at 0.123 µM is 126%, the inhibition at 0.37 µM is 121%, the inhibition at 1.1 µM was 128% and the inhibition at 3.3 µM is 124%. Moreover, at HIV-1 protease [2], the inhibition at 10 µM was 125% and the inhibition at 30 µM was determined as 120%.

Consider `CC(C)CC(c1cccc(NS(=O)(=O)c2ccc(C#N)cc2)c1)c1c(O)c2c(oc1=O)CCCCCC2` (stereo not drawn) [Example 426, Benzenesulfonamide, 4-cyano-N-[3-[1-(5,6,7,8,9,10-hexahydro-4-hydroxy-2-oxo-2H-cycloocta[b]pyran-3-yl)-3-methylbutyl]phenyl]-], for which the Ki at HIV-1 protease [1] turned out to be 1.48 nM. Also, at HIV-1 protease [2], the inhibition at 0.123 µM worked out at 102%, the inhibition at 0.37 µM stood at 117%, the inhibition at 1.1 µM was found to be 109% and the inhibition at 3.3 µM was 102%. On HIV-1 protease [2], the inhibition at 10 µM was 102% and the inhibition at 30 µM was 106%.

With `CC(C)CC(c1cccc(NS(=O)(=O)c2cn(C)cn2)c1)c1c(O)c2c(oc1=O)CCCCCC2` (stereo not drawn) [Example 427, 1H-Imidazole-4-sulfonamide, N-[3-[1-(5,6,7,8,9,10-hexahydro-4-hydroxy-2-oxo-2H-cycloocta[b]pyran-3-yl)-3-methylbutyl]phenyl]-1-methyl-], the Ki at HIV-1 protease [1] was determined as 0.65 nM. On HIV-1 protease [2], the inhibition at 0.123 µM was determined as 94.2%, the inhibition at 0.37 µM was found to be 92.8%, the inhibition at 1.1 µM came to 91.2% and the inhibition at 3.3 µM was found to be 90%. Moreover, on HIV-1 protease [2], the inhibition at 10 µM turned out to be 89.6% and the inhibition at 30 µM was determined as 81.9%.

As to `CCCC(c1cccc(NS(=O)(=O)c2cn(C)cn2)c1)c1c(O)c2c(oc1=O)CCCCCC2` (stereo not drawn) [Example 431, 1H-imidazole-4-sulfonamide, N-[3-[1-(5,6,7,8,9,10-hexahydro-4-hydroxy-2-oxo-2H-cycloocta[b]pyran-3-yl)butyl]phenyl]-1-methyl-], the inhibitory constant (Ki) on HIV-1 protease [1] stood at 0.89 nM. Moreover, on HIV-1 protease [2], the inhibition at 0.123 µM is 109%, the inhibition at 0.37 µM stood at 109%, the inhibition at 1.1 µM was found to be 109% and the inhibition at 3.3 µM was found to be 112%. Also, on HIV-1 protease [2], the inhibition at 10 µM was 105% and the inhibition at 30 µM turned out to be 106%.

`CCCC(c1cccc(NS(=O)(=O)c2cccc3cccnc23)c1)c1c(O)c2c(oc1=O)CCCCCC2` (stereo not drawn) [Example 432, 8-Quinolinesulfonamide, N-[3-[1-(5,6,7,8,9,10-hexahydro4-hydroxy-2-oxo-2H-cycloocta[b]pyran-3-yl)butyl]phenyl]-]: the Ki on HIV-1 protease [1] is 1.65 nM. Moreover, on HIV-1 protease [2], the inhibition at 0.123 µM amounted to 101%, the inhibition at 0.37 µM worked out at 104%, the inhibition at 1.1 µM is 111% and the inhibition at 3.3 µM was 109%. Further, on HIV-1 protease [2], the inhibition at 10 µM was found to be 107% and the inhibition at 30 µM is 98%.

In the case of `CCCC(c1cccc(NS(=O)(=O)c2cccnc2)c1)c1c(O)c2c(oc1=O)CCCCCC2` (stereo not drawn) [Example 433, 3-Pyridinesulfonamide, N-[3-[1-(5,6,7,8,9,10-hexahydro-4-hydroxy-2-oxo-2H-cycloocta[b]pyran-3-yl)butyl]phenyl]-], at HIV-1 protease [1], the Ki came out at 2.24 nM. Besides, on HIV-1 protease [2], the inhibition at 0.123 µM turned out to be 103%, the inhibition at 0.37 µM turned out to be 109%, the inhibition at 1.1 µM was found to be 104% and the inhibition at 3.3 µM was determined as 104%. In addition, at HIV-1 protease [2], the inhibition at 10 µM stood at 109% and the inhibition at 30 µM amounted to 108%.

As to `O=c1oc2c(c(O)c1C1(c3ccccc3)CCC1)CCCCCC2` [Example 483, 3-(Phenylcyclobutyl)-5,6,7,8,9,10-hexahydro-4-hydroxy-2H-cycloocta[b]pyran-2-one], the Ki at HIV-1 protease [1] was found to be 33 nM. For the same compound, at HIV-1 protease [2], the inhibition at 0.37 µM worked out at 44.8%, the inhibition at 1.1 µM was determined as 73.2%, the inhibition at 3.3 µM stood at 85.2% and the inhibition at 10 µM was 69.5%. The inhibition at 30 µM on HIV-1 protease [2] came out at 76.7%.

In the case of `Nc1cc(NS(=O)(=O)c2ccccc2)cc(C(c2c(O)c3c(oc2=O)CCCCCC3)C2CC2)c1` (stereo not drawn) [Example 486], the Ki at HIV-1 protease [1] stood at 55 nM. Moreover, on HIV-1 protease [2], the inhibition at 0.37 µM was 40%, the inhibition at 1.1 µM was 74%, the inhibition at 3.3 µM was 97.5% and the inhibition at 10 µM was found to be 126%. In addition, the inhibition at 30 µM on HIV-1 protease [2] turned out to be 109%.

As to “N-[3-[Cyclopropyl(5,6,7,8,9,10-hexahydro-4-hydroxy-2-oxo-2H-cycloocta[b]pyran-3-yl)-methyl]phenyl]-(3-N-ethylbenzenesulfonyl)benzenesulfonamide [Example 414]”, the inhibition constant (Ki) on HIV-1 protease [1] came to 3.5 nM. For the same compound, the “HIV-1 Protease % Inhib” value on HIV-1 protease [2] (dose 0.123 uM) was 62.73%; on HIV-1 protease [2] (dose 0.370 uM) it was 85.78%; on HIV-1 protease [2] (dose 1.100 uM), 103.16%; at HIV-1 protease [2] (dose 3.300 uM) it was 105.93%; on HIV-1 protease [2] (dose 10.000 uM), 104.38%; on HIV-1 protease [2] (dose 30.000 uM), 109.61%.
